Usually EC50 stands for the concentration at which the effect is half-maximal.

T1 sequence (P50391 whole entry): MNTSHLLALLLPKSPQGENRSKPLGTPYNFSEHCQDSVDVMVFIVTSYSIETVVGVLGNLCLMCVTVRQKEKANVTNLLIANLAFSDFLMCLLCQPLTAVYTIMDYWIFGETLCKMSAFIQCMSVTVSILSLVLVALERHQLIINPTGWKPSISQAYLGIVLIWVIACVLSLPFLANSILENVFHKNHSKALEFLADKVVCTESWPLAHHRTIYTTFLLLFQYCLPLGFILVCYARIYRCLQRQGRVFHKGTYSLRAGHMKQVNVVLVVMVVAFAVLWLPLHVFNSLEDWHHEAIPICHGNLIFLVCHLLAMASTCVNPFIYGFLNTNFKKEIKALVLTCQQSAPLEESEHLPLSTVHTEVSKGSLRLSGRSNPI

One assay addresses T1, human Y4 receptor (Homo sapiens, UniProt P50391).
T1 construct: expressed in transfected cells
Briefly: NPY4 cAMP HTRF Agonist Assay (inhibitory cAMP assay, Gi activation by Y4 agonism). The class given is cell-based. The settings on record: TABLE 2, R2 is Phenyl-CN; read-out: hY4 CAMP EC50. The essentials:
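Y4 agonism read as lowered forskolin-stimulated cAMP (HTRF, 1 h detection at room temperature). Stable human Y4 CHO clone, 5000 cells/well, incubated 30 min at room temperature with compounds plus forskolin and IBMX in PBS.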
(In TR-FRET formats the signal depends on donor and acceptor labels being close together.)
In the case of `N#Cc1ccc(N2CCC[C@H](N[C@@H]3CCCC[C@H]3Nc3cc(-c4cccc(S(N)(=O)=O)c4)ccn3)C2)cc1` [Example 236], the EC50 was 40 nM.
Still for that read-out and setting: under `N#Cc1ccc(N2CCC[C@H](N[C@@H]3CCCC[C@H]3Nc3cc(-c4cccc5c4CC(=O)N5)ccn3)C2)cc1` [Example 212] stands 13 nM; under `N#Cc1ccc(N2CC3CC2[C@@H](N[C@@H]2CCCC[C@H]2Nc2ncc(-c4ccc(OC(F)F)cc4)o2)C3)cc1` (some centres unmarked) [Example 229], 3 nM.
For `N#Cc1ccc(N2CCC[C@H](N[C@@H]3CCCC[C@H]3Nc3cc(-c4ccc5cn[nH]c5c4)ccn3)C2)cc1` [Example 215], the 50% effective concentration (EC50) is 215 nM.
The same measure, in the same setting: the same measure for `N#Cc1ccc(N2CCC[C@H](N[C@@H]3CCCC[C@H]3Nc3cc(-c4ccc(CO)cc4)ccn3)C2)cc1` [Example 218]: 302 nM.
With `N#Cc1ccc(N2CCC[C@H](N[C@@H]3CCCC[C@H]3Nc3cc(-c4cncc5ccccc45)ccn3)C2)cc1` [Example 216], the 50% effective concentration (EC50) was found to be 189 nM.
On the same count and under the same terms, the same measure for `CS(=O)(=O)c1ccc(-c2ccnc(N[C@@H]3CCCC[C@H]3N[C@H]3CCCN(c4ccc(C#N)cc4)C3)c2)cc1` [Example 255]: 922 nM; for `N#Cc1ccc(N2CCC[C@H](N[C@@H]3CCCC[C@H]3NC3=NOC(c4ccccc4)C3)C2)cc1` (some centres unmarked) [Example 230]: 378 nM.

Still in this assay, the particulars now being: TABLE 3, R2 is Phenyl-NO2; read-out: hY4 CAMP EC50.
On to `NC(=O)c1cccc(-c2cc(N[C@@H]3CCCC[C@H]3N[C@H]3C[C@@H]4C[C@H]3N(c3ccc([N+](=O)[O-])cc3)C4)ncn2)c1` [Example 297], for which the EC50 came out at 163 nM.

Staying with this assay, now noted: TABLE 4, R2 is Pyridinyl-CN; read-out: hY4 CAMP EC50.
`N#Cc1ccc(N2C[C@@H]3C[C@H](N[C@@H]4CCCC[C@H]4Nc4cc(-c5cccc(C(N)=O)c5)ccn4)[C@H]2C3)cn1` [Example 302]: the EC50 stood at 1210 nM.

The same assay, now with this note: TABLE 5, R2 is Pyridinyl-CF3; read-out: hY4 CAMP EC50.
As for `O=C(Nc1cccc(-c2cnc(N[C@@H]3CCCC[C@H]3N[C@H]3CCCN(c4ccc(C(F)(F)F)nc4)C3)o2)c1)C1CC1` [Example 334], the EC50 worked out at 3 nM.
With `NC(=O)c1cccc(-c2cnc(N[C@@H]3CCCC[C@H]3N[C@H]3CCCN(c4ccc(C(F)(F)F)nc4)C3)o2)c1` [Example 320], the 50% effective concentration (EC50) was 1 nM.
On the same count and under the same terms, the same measure for `C[C@]1(N[C@@H]2CCCC[C@H]2Nc2ncc(-c3cccc(C(N)=O)c3)o2)CCCN(c2ccc(C(F)(F)F)cn2)C1` [Example 329]: 1 nM.

The assay is the same for the next values; noted with them: human Y4 receptor, cAMP; read-out: hY4 CAMP EC50.
Take `N#Cc1cnc(N2C[C@@H]3C[C@H](N[C@@H]4CCCC[C@H]4Nc4cc(-c5cccc(C(N)=O)c5)ccn4)[C@H]2C3)nc1` [Example 442]: the EC50 came to 228 nM.
With `N#Cc1cnc(N2CCC[C@H](N[C@@H]3CCCC[C@H]3Nc3ncc(-c4cccc(C(N)=O)c4)o3)C2)cn1` [Example 478], the EC50 turned out to be 25 nM.
Turning to `C[C@]1(N[C@@H]2CCCC[C@H]2Nc2ncc(-c3cccc(C(N)=O)c3)o2)CCCN(c2ncc(C#N)cn2)C1` [Example 432], the EC50 turned out to be 29 nM.
For `NC(=O)c1cccc(-c2ccnc(N[C@@H]3CCCC[C@H]3N[C@H]3CCCN(c4ccc(F)cc4)C3)c2)c1` [Example 453], the EC50 was 41 nM.
As for `Cc1nnc(-c2ccc(N3CCC[C@H](N[C@@H]4CCCC[C@H]4Nc4ncc(-c5ccccc5OC(F)(F)F)o4)C3)cc2)o1` [Example 348], the EC50 was 3 nM.
The same measure, in the same setting: the same measure for `Cc1nc2ccc(N3CCC[C@H](N[C@@H]4CCCC[C@H]4Nc4ncc(-c5ccc(F)cc5F)o4)C3)cn2n1` [Example 493]: 47 nM; for `NC(=O)c1cccc(-c2cnc(N[C@@H]3CCCC[C@H]3N[C@H]3CCCN(c4ccc(-c5noc(C6CC6)n5)cn4)C3)o2)c1` [Example 452]: 3 nM.
With `Cc1nc2ccc(N3CCC[C@H](N[C@@H]4CCCC[C@H]4Nc4ncc(-c5cc(F)c(F)cc5F)o4)C3)cn2n1` [Example 497], the EC50 is 46 nM.
The same measure, in the same setting: the same measure for `Cc1nc(-c2ccc(N3C[C@@H]4C[C@H](N[C@@H]5CCCC[C@H]5Nc5cc(-c6cccc(C(N)=O)c6)ccn5)[C@H]3C4)cc2)no1` [Example 353]: 1 nM.
The same measure, in the same setting: under `CNC(=O)c1cccc(-c2cnc(N[C@@H]3CCCC[C@H]3N[C@H]3CCCN(c4ccc5ncnn5c4)C3)o2)c1` [Example 485] stands 58 nM.
As to `Cn1nnc(-c2ccc(N3CCC[C@H](N[C@@H]4CCCC[C@H]4Nc4ncc(-c5ccc(OC(F)(F)F)cc5)o4)C3)cc2)n1` [Example 499], the EC50 is 1.4 nM.
Same read-out and setting: under `Cn1nnnc1-c1ccc(N2CCC[C@H](N[C@@H]3CCCC[C@H]3Nc3nccc(-c4ccccc4)n3)C2)cc1` [Example 502] stands 98 nM.
Still for that read-out and setting: the same measure for `N#Cc1ncc(N2CCC[C@H](N[C@@H]3CCCC[C@H]3Nc3cc(-c4cccc(C(N)=O)c4)ccn3)C2)cn1` [Example 431]: 171 nM; for `CS(=O)(=O)Nc1cccc(-c2cnc(N[C@@H]3CCCC[C@H]3N[C@H]3CCCN(c4cnc(C(F)(F)F)nc4)C3)o2)c1` [Example 414]: 5 nM; for `CNC(=O)Nc1cccc(-c2cnc(N[C@@H]3CCCC[C@H]3N[C@H]3CCCN(c4cnc(C(F)(F)F)nc4)C3)o2)c1` [Example 428]: 4 nM.

The same assay, now with this note: human Y4 stable CHO clonal cells, forskolin + IBMX; read-out: NPY4 cAMP HTRF Agonist Assay EC50.
Turning to `Cn1nccc1-c1ccnc(N[C@@H]2CCCC[C@H]2N[C@H]2CCCN(c3ccc(C#N)cc3)C2)c1` [Example 34, 4-((S)-3-((1R,2R)-2-(4-(1-Methyl-1H-pyrazol-5-yl)pyridin-2-ylamino)cyclohexylamino)piperidin-1-yl)benzonitrile tris-trifluoroacetate], the EC50 is 150 nM.
With `N#Cc1ccc(N2CCC[C@H](N[C@@H]3CCCC[C@H]3Nc3nccc(-c4ccccc4)n3)C2)cc1Cl` [Example 40, 2-Chloro-4-((S)-3-((1R,2R)-2-(4-phenylpyrimidin-2-ylamino)cyclohexylamino)piperidin-1-yl)benzonitrile bis-trifluoroacetate], the EC50 is 29 nM.
With `COC(=O)Nc1cccc(-c2cnc(N[C@@H]3CCCC[C@H]3N[C@H]3CCCN(c4cnc(C(F)(F)F)nc4)C3)o2)c1` [Example 103, Methyl (3-(2-((1R,2R)-2((S)-1-(2-trifluoromethyl)pyrimidin-5-yl)piperidin-3-ylamino)cyclohexylamino)oxazol-5-yl)phenylcarbamate], the EC50 was 3 nM.
With `Fc1cccc(-c2cnc(N[C@@H]3CCCC[C@H]3N[C@H]3CCCN(c4ccc(C(F)(F)F)cc4)C3)o2)c1` [Example 76, (1R,2R)—N1-(5-(3-Fluorophenyl)oxazol-2-yl)-N2-((S)-1-(4-(trifluoromethyl)phenyl)piperidin-3-yl)cyclohexane-1,2-diamine], the EC50 is 21 nM.
Still for that read-out and setting: the same measure for `O=[N+]([O-])c1ccc(N2CCC[C@H](N[C@@H]3CCCC[C@H]3Nc3nccc(-c4cccc(OC(F)(F)F)c4)n3)C2)cc1` [Example 29, (1R,2R)—N1-((S)-1-(4-Nitrophenyl)piperidin-3-yl)-N2-(4-(3-(trifluoromethoxy)phenyl)pyrimidin-2-yl)cyclohexane-1,2-diamine]: 389 nM; for `c1ccc(-c2ccnc(N[C@@H]3CCCC[C@H]3N[C@H]3CCCN(c4ccc(-n5cccn5)cc4)C3)n2)cc1` [Example 64, (1R,2R)—N1-((S)-1-(4-(1H-Pyrazol-1-yl)phenyl)piperidin-3-yl)-N2-(4-phenylpyrimidin-2-yl)cyclohexane-1,2-diamine bis-trifluoroacetate]: 89 nM.
On to `O=[N+]([O-])c1ccc(N2CCC[C@H](N[C@@H]3CCCC[C@H]3Nc3ncc(-c4ccccc4)o3)C2)cc1` [Example 2, (1R,2R)—N1-((S)-1-(4-Nitrophenyl)piperidin-3-yl)-N2-(5-phenyloxazol-2-yl)cyclohexane-1,2-diamine], for which the EC50 is 3 nM.
Still for that read-out and setting: under `Cc1ccn(-c2ccc(N3CCC[C@H](N[C@@H]4CCCC[C@H]4Nc4nccc(-c5ccccc5)n4)C3)cc2)n1` [Example 67, (1R,2R)—N1-((S)-1-(4-(3-Methyl-1H-pyrazol-1-yl)phenyl)piperidin-3-yl)-N2-(4-phenylpyrimidin-2-yl)cyclohexane-1,2-diamine bis-trifluoroacetate] stands 57 nM.
Same read-out and setting: under `N#Cc1cnc(N2CCC[C@H](N[C@@H]3CCCC[C@H]3Nc3ncc(-c4ccc(OC(F)(F)F)cc4)o3)C2)nc1` [Example 81, 2-((S)-3-((1R,2R)-2-(5-(4-(Trifluoromethoxy)phenyl)oxazol-2-ylamino)cyclohexylamino)piperidin-1-yl)pyrimidine-5-carbonitrile bis-trifluoroacetate] stands 41 nM.

Still in this assay, the particulars now being: second TABLE 1, R2 is Phenyl-CF3; read-out: hY4 CAMP EC50.
Consider `CCNC(=O)c1cccc(-c2ccnc(N[C@@H]3CCCC[C@H]3N[C@H]3CCCN(c4ccc(C(F)(F)F)cc4)C3)c2)c1` [Example 138], for which the EC50 stood at 9 nM.
On the same count and under the same terms, the same measure for `N#Cc1cccc(-c2cnc(N[C@@H]3CCCC[C@H]3N[C@H]3CCCN(c4ccc(C(F)(F)F)cc4)C3)o2)c1` [Example 160]: 548 nM; for `FC(F)(F)c1ccc(N2CCC[C@H](N[C@@H]3CCCC[C@H]3Nc3ncc(Cl)cn3)C2)cc1` [Example 196]: 809 nM.
As for `NC(=O)c1cccc(-c2cnc(N[C@@H]3CCCC[C@H]3N[C@H]3C[C@@H]4C[C@H]3N(c3ccc(C(F)(F)F)cc3)C4)o2)c1` [Example 178], the EC50 came out at 2 nM.
As to `FC(F)(F)c1ccc(N2CCC[C@H](N[C@@H]3CCCC[C@H]3Nc3cc(-c4cccc(-n5cccn5)c4)ccn3)C2)cc1` [Example 158], the EC50 is 53 nM.
In the case of `Oc1ccc(-c2ccnc(N[C@@H]3CCCC[C@H]3N[C@H]3CCCN(c4ccc(C(F)(F)F)cc4)C3)c2)cc1` [Example 135], the EC50 was determined as 27 nM.
The same measure, in the same setting: the same measure for `OCCCc1cccc(-c2ccnc(N[C@@H]3CCCC[C@H]3N[C@H]3CCCN(c4ccc(C(F)(F)F)cc4)C3)c2)c1` [Example 153]: 31 nM.
